From ChEMBL document CHEMBL4483862, “Open-source discovery of chemical leads for next-generation chemoprotective antimalarials” (2018)

Test system: Plasmodium berghei
Assay: Luciferase/luciferin-expressing antifolate-resistant parasites were used to infect a culture of HepG2 cells that were pre-incubated with compounds. Infected hepatocytes emit light due to the luciferase reaction. Assay results are presented as the percent inhibition of light emission compared to control. […]
Assay type: functional
Conditions: sporozoite; for IC90: read-out: LUCIFERASE INFECTION ASSAY - IC90
[1] = read-out: LUCIFERASE INFECTION ASSAY - IC50

SMILES | IC90 [µM] | IC50 [1] [µM] | also measured
C=CCn1c(C)cc(C(=O)CSc2nc3ccccc3o2)c1C | 0.129 |  | IC50 (HEPG2TOX_HILL_SLOPE 2.02, HEPG2TOX_R_SQUARED 0.572, PBLUC_HILL_SLOPE 43.7, PBLUC_R_SQUARED 0.493, read-out: LUCIFERASE INFECTION ASSAY - IC50): 0.123 µM
Cn1nc(-c2ccc(S(=O)(=O)NCc3cccnc3)s2)cc1C(F)(F)F | > 8.2 | > 8.2 | 
Fc1ccc(COc2ccc3ccccc3c2CNCc2ccccn2)cc1 | > 8.86 |  | IC50 (PBLUC_HILL_SLOPE 18.6, PBLUC_R_SQUARED 0.616, read-out: LUCIFERASE INFECTION ASSAY - IC50): 8.21 µM
Cn1nc(-c2ccccc2)c(/C=N/O)c1Sc1ccc(C(C)(C)C)cc1 | > 9.03 |  | IC50 (FFLUC_HILL_SLOPE 15.8, FFLUC_R_SQUARED 0.096, HEPG2TOX_HILL_SLOPE 2.21, HEPG2TOX_R_SQUARED 0.952, PBLUC_HILL_SLOPE 13.8, PBLUC_R_SQUARED 0.121, read-out: LUCIFERASE INFECTION ASSAY - IC50): 8.79 µM
CN(C)c1cccc(Nc2nccc3[nH]c(-c4cccc(F)c4)cc23)c1 | 1.41 |  | IC50 (HEPG2TOX_HILL_SLOPE 2.36, HEPG2TOX_R_SQUARED 0.936, PBLUC_HILL_SLOPE 7.91, PBLUC_R_SQUARED 0.783, read-out: LUCIFERASE INFECTION ASSAY - IC50): 1.07 µM
COC(=O)Cc1cc(=O)nc(SCC(=O)c2cc(C)n(-c3ccc(C(C)C)cc3)c2C)[nH]1 | > 10 | > 10 | 
Cc1ccc2nc(NC(=O)c3cc(F)ccc3F)c(C(=O)NC3CCCC3)n2c1 | 3 |  | IC50 (HEPG2TOX_HILL_SLOPE 2.24, HEPG2TOX_R_SQUARED 0.919, PBLUC_HILL_SLOPE 5.13, PBLUC_R_SQUARED 0.447, read-out: LUCIFERASE INFECTION ASSAY - IC50): 1.96 µM
Cc1onc(-c2c(Cl)cccc2Cl)c1-c1csc(-c2ccccc2Cl)n1 | 6.63 |  | IC50 (FFLUC_HILL_SLOPE 1.25, FFLUC_R_SQUARED 0.188, HEPG2TOX_HILL_SLOPE 2.28, HEPG2TOX_R_SQUARED 0.946, PBLUC_HILL_SLOPE 2.98, PBLUC_R_SQUARED 0.455, read-out: LUCIFERASE INFECTION ASSAY - IC50): 3.17 µM
CC(C)c1noc(CCC(=O)Nc2ccc(F)cc2F)n1 | > 10 | > 10 | 
CC(=O)c1cc2c(cc1NC(=O)c1ccc(Cn3cccn3)cc1)OCO2 | > 10 | > 10 | 
CCNC(=O)C1CCCN(Cc2noc(-c3ccccc3OC)n2)CC1 (centres undefined) | > 9.21 | > 9.21 | 
N#Cc1cc(NS(=O)(=O)c2c[nH]c(C(=O)N3CCCC3)c2)ccc1Cl | > 10 |  | IC50 (PBLUC_HILL_SLOPE 1.14, PBLUC_R_SQUARED 0.85, read-out: LUCIFERASE INFECTION ASSAY - IC50): 5.33 µM
NS(=O)(=O)c1ccc(CCNc2nc(-c3ccc(Cl)cc3)nc3sc4c(c23)CCC4)cc1 | > 10 |  | IC50 (FFLUC_HILL_SLOPE 5.22, FFLUC_R_SQUARED 0.196, PBLUC_HILL_SLOPE 2.11, PBLUC_R_SQUARED 0.629, read-out: LUCIFERASE INFECTION ASSAY - IC50): 7.12 µM
N#CC(C#N)=NNc1ccccc1Oc1ccc(Cl)cc1Cl | > 9.96 |  | IC50 (FFLUC_HILL_SLOPE 1.54, FFLUC_R_SQUARED 0.588, HEPG2TOX_HILL_SLOPE 1.18, HEPG2TOX_R_SQUARED 0.604, read-out: LUCIFERASE INFECTION ASSAY - IC50): > 9.96 µM
COc1ccc2c(=O)c(C(=O)N(C)Cc3ccc(F)c(F)c3)c[nH]c2c1 | 4.7 |  | IC50 (PBLUC_HILL_SLOPE 1.79, PBLUC_R_SQUARED 0.658, read-out: LUCIFERASE INFECTION ASSAY - IC50): 1.38 µM
COc1cc(-c2cc(-c3ccccc3)cnc2N)ccc1O | 4.45 |  | IC50 (PBLUC_HILL_SLOPE 13.8, PBLUC_R_SQUARED 0.558, read-out: LUCIFERASE INFECTION ASSAY - IC50): 3.8 µM
COc1ccc(Cl)cc1NC(=O)COC(=O)COc1ccc(/C=C2\SC(=S)N(c3cccc(C(F)(F)F)c3)C2=O)cc1OC | > 10 |  | IC50 (FFLUC_HILL_SLOPE 3.19, FFLUC_R_SQUARED 0.292, read-out: LUCIFERASE INFECTION ASSAY - IC50): > 10 µM
O=C1C=C/C(=N/N(Cc2ccccc2)c2ccccc2)O1 | > 10 | > 10 | 
CC(C)(C)c1cc(-c2csc(CS(=O)(=O)Cc3cccc(C(F)(F)F)c3)n2)cc(C(C)(C)C)c1O | > 6.28 |  | IC50 (FFLUC_HILL_SLOPE 261, FFLUC_R_SQUARED 0.0541, PBLUC_HILL_SLOPE 0.448, PBLUC_R_SQUARED 0.195, read-out: LUCIFERASE INFECTION ASSAY - IC50): > 6.28 µM
COc1cccc(CN2CCN3C=C(C(=O)Nc4ccc(Oc5ccccc5)cc4)OC3=NC2=O)c1 | > 10 | > 10 | 
Cc1cccc(-c2cn3c(-c4cccc(C(=O)N5CCN(C)CC5)c4)cnc3cn2)c1C | 3 |  | IC50 (PBLUC_HILL_SLOPE 16.5, PBLUC_R_SQUARED 0.755, read-out: LUCIFERASE INFECTION ASSAY - IC50): 2.63 µM

SMILES | IC90 [µM] | IC50 [1] [µM] | also measured
CC(C)CC(N)c1csc(Nc2nncc3ccccc23)n1 (centres undefined) | 4.43 |  | IC50 (HEPG2TOX_HILL_SLOPE 11.3, HEPG2TOX_R_SQUARED 0.262, PBLUC_HILL_SLOPE 9.28, PBLUC_R_SQUARED 0.498, read-out: LUCIFERASE INFECTION ASSAY - IC50): 3.5 µM
CCCS(=O)(=O)N1CCC(NC(=O)c2scnc2C)CC1 | > 10 | > 10 | 
C=C(c1c[nH]c2ccccc12)c1c[nH]c2ccccc12 | > 10 |  | IC50 (PBLUC_HILL_SLOPE 132, PBLUC_R_SQUARED 0.705, read-out: LUCIFERASE INFECTION ASSAY - IC50): 9.85 µM
CC(NC(=O)C1CCCN(C(=O)OC(C)(C)C)C1)c1ccc(-n2ccnc2)cc1 (centres undefined) | > 2 | > 2 | 
Clc1cncc(Cl)c1N1CCN(c2ccc(-c3cccnc3)cn2)CC1 | > 8.54 | 0.996 | 
CCOc1cccc2cc(C(C)Nc3ncnc4n[nH]cc34)oc12 (centres undefined) | 6.49 |  | IC50 (HEPG2TOX_HILL_SLOPE 1.82, HEPG2TOX_R_SQUARED 0.969, PBLUC_HILL_SLOPE 2.94, PBLUC_R_SQUARED 0.376, read-out: LUCIFERASE INFECTION ASSAY - IC50): 3.07 µM
CCN(CC(=O)Nc1ccccc1C(F)(F)F)CC(=O)N1CCc2ccccc21 | 7.42 |  | IC50 (HEPG2TOX_HILL_SLOPE 12.9, HEPG2TOX_R_SQUARED 0.752, PBLUC_HILL_SLOPE 284, PBLUC_R_SQUARED 0.135, read-out: LUCIFERASE INFECTION ASSAY - IC50): 7.36 µM
Cc1ccc(-c2cc(=O)n(-c3nc4ccccc4[nH]3)[nH]2)cc1 | > 11.4 | > 11.4 | 
Cc1cc2ccccc2n1CC(=O)NCc1ccc(NC(=O)c2ccco2)cc1 | > 10 | 5.73 | 
O=C1CC(c2cccc(Cl)c2Cl)c2c([nH]c(-c3ccccc3)nc2=O)N1 (centres undefined) | > 8.54 | > 8.54 | 
Cc1ccc(C2(c3ccccc3)NC(=O)N(CC(=O)c3cccs3)C2=O)cc1C (centres undefined) | 6.65 |  | IC50 (FFLUC_HILL_SLOPE 12.5, FFLUC_R_SQUARED 0.056, HEPG2TOX_HILL_SLOPE 0.321, HEPG2TOX_R_SQUARED 0.0152, PBLUC_HILL_SLOPE 3.37, 16.8, PBLUC_R_SQUARED 0.316, 0.669, read-out: LUCIFERASE INFECTION ASSAY - IC50): 4.11 µM
Cn1ccnc1Sc1c[nH]c(=S)nc1-c1ccc(Cl)cc1 | 9.04 |  | IC50 (FFLUC_HILL_SLOPE 122, FFLUC_R_SQUARED 0.312, PBLUC_HILL_SLOPE 4.61, PBLUC_R_SQUARED 0.38, read-out: LUCIFERASE INFECTION ASSAY - IC50): 5.61 µM
CN(C)CCCN1C(=O)N(CCc2ccccc2)C2(CCN(Cc3cn(C)c4ccccc34)CC2)C1=O | 6.2 |  | IC50 (HEPG2TOX_HILL_SLOPE 17.2, HEPG2TOX_R_SQUARED 0.602, PBLUC_HILL_SLOPE 5.41, PBLUC_R_SQUARED 0.643, read-out: LUCIFERASE INFECTION ASSAY - IC50): 4.13 µM
Cc1cccc(Nc2ccccc2C(=O)OCC(=O)N2CCNC2=O)c1C | 7.08 |  | IC50 (PBLUC_HILL_SLOPE 113, PBLUC_R_SQUARED 0.339, read-out: LUCIFERASE INFECTION ASSAY - IC50): 6.94 µM
CCOC(=O)c1c(C)[nH]c(N=Nc2ccc3c(c2)OCO3)c1C | > 10 | 9.43 | 
O=[N+]([O-])c1ccccc1/C=N/n1c(-c2ccc(Cl)cc2)cs/c1=N\CC1CCCO1 (centres undefined) | 7.09 |  | IC50 (HEPG2TOX_HILL_SLOPE 0.61, HEPG2TOX_R_SQUARED 0.914, PBLUC_HILL_SLOPE 1.45, PBLUC_R_SQUARED 0.571, read-out: LUCIFERASE INFECTION ASSAY - IC50): 1.55 µM
CCN(C(=O)COc1ccc(-c2ccccc2)cc1)c1cccc2ccccc12 | > 10 | > 10 | 
O=C(c1cc2cc(Cl)ccc2o1)N1CCN(Cc2ccc3c(c2)OCO3)CC1 | > 8.27 | > 8.27 | 
CCN(CC(O)COc1ccccc1-c1ccccc1)C1CCCCC1 (centres undefined) | 9.13 |  | IC50 (HEPG2TOX_HILL_SLOPE 6.72, HEPG2TOX_R_SQUARED 0.0493, PBLUC_HILL_SLOPE 495, PBLUC_R_SQUARED 0.169, read-out: LUCIFERASE INFECTION ASSAY - IC50): 9.09 µM
Cn1ccnc1SCc1n[nH]c(=O)c2ccccc12 | 8.93 |  | IC50 (HEPG2TOX_HILL_SLOPE 15.9, HEPG2TOX_R_SQUARED 0.771, PBLUC_HILL_SLOPE 3.2, PBLUC_R_SQUARED 0.661, read-out: LUCIFERASE INFECTION ASSAY - IC50): 4.5 µM
COc1cccc(Nc2nccc3nc(-c4cccc(OC(F)(F)F)c4)[nH]c23)c1 | > 10 |  | IC50 (PBLUC_HILL_SLOPE 2.87, PBLUC_R_SQUARED 0.483, read-out: LUCIFERASE INFECTION ASSAY - IC50): 5.1 µM
